# Where “and” joins values, the source holds several entries; their conditions need not be identical. Identical values can stand only once.
# Tested on: children with PCDH19 epilepsy
# Assay: Phase 2 open-label trial, PCDH19 cohort, seizure efficacy
# Type: in vivo, human
# Excerpt: Example 3 concerns a Phase 2 Multicenter, Open-Label Proof-of-Concept Trial of ganaxolone (GNX) in cohorts of children having genetic epilepsies (PCDH19, CDKL5 LGS, and CSWS) (ClinicalTrials.gov Identifier: NCT02358538). There were 11 female children with PCDH19 epilepsy between 5-16 years old with a confirmed genetic mutation. There were 6 female and 1 male children with confirmed genetic mutations in the CDKL5 cohort. There were 10 children in the Lennox Gastaut Syndrome cohort. Two children with CSWS were enrolled into the study. The study was conducted with 12 weeks baseline, and up to 26 weeks of treatment followed by a 52 week open label treatment. The primary efficacy was the percentage change in seizure frequency per 28 days relative to baseline calculated using daily seizure diary. [Time Frame: 26 weeks]. Secondary Outcome Measures were: Clinician Global Impression of Change score as assessed by questionnaire. [Time Frame: 26 Weeks]; Patient Global Impression of Change score as assessed by questionnaire. [Time Frame: 26 Weeks]; Evaluation of safety and tolerability of open-label ganaxolone as adjunctive therapy for uncontrolled seizures in children with rare genetic epilepsies, based on adverse event log and other clinical safety assessments. [Time Frame: 26 weeks]; Responder rates [Time Frame: 26 weeks]; and Seizure free days [Time Frame: 26 weeks].
# Following screening and baseline evaluations, consenting patients enrolled into a 26-week study during which investigators were allowed to flexibly dose ganaxolone up to a dose of 1,800 mg/day for patients whose body weight was >30 kg, or up to 63 mg/kg/day for patients whose body-weight was <30 kg. The primary efficacy measure is % change from baseline in the 28-day seizure frequency count. Safety and tolerability were within the secondary objectives of the study.
# In this study, oral ganaxolone suspension or capsules were administered up to a total of 63 mg/kg/day (maximum 1800 mg/day) over 2-4 weeks. About six-eight titration steps are used, depending on the size of the patient. Children larger than 30 kg may take the ganaxolone capsules. The ganaxolone oral suspension was administered through an oral dosing syringe three times daily. The ganaxolone capsules were administered twice daily. The patients experience better absorption of the ganaxolone with meals (milk).
# In total, 11 female subjects between 4 and 15 years of age with a confirmed PCDH19 genetic mutation and uncontrolled seizures despite antiepileptic pharmacotherapy were enrolled. Ganaxolone was studied as an adjunctive treatment, administered as either PO liquid suspension or capsules according to the titration schedule in Tables 7 and 8, for 26 weeks after establishing up to 12 weeks of baseline seizure frequency. Primary and secondary endpoints were the same as for the CDKL5 deficiency disorder cohort.
# After establishing baseline seizure frequency, qualifying subjects entered the study and were treated with open-label ganaxolone oral suspension or ganaxolone capsules at doses up to a maximum of 1800 mg/day for up to 6 months. Maximum study participation was 94 weeks: a screening period up to 12 weeks to establish baseline seizure frequency, up to 26 weeks of treatment, a 52 week extension for subjects who benefited from ganaxolone treatment, and up to 4 weeks of down titration period. […] Refractive cases of LGS or CSWS that had prior response to steroid or ACTH could also have been enrolled.
# Ganaxolone oral suspension was administered through an oral dosing syringe by parent or legal guardian 3 times daily (TID), following the morning, noon, and evening meal or snack. Each dose was separated by a minimum of 4 hours and a maximum of 8 hours. A missed dose of ganaxolone could have been taken up to 4 hours before the next scheduled dose; otherwise, the missed dose was not to be given. […]
# [1] = individual PCDH19 subjects 1-11
# [2] = preliminary data, 11 PCDH19 patients
compound,measurement,setting,value
"CC(=O)[C@H]1CC[C@H]2[C@@H]3CC[C@H]4C[C@](C)(O)CC[C@]4(C)[C@H]3CC[C@]12C [Ganaxolone, 3α-hydroxy-3β-methyl-5α-pregnan-20-one]",Median change (decrease) in 28-day seizure frequency from baseline,"PCDH19, ITT / all-comers n=11, 4 patients LOCF",26%
same,Median change (increase) from baseline in seizure-free days,"PCDH19, ITT n=11",14%
same,"Median % change seizure rates, biomarker-negative subjects","PCDH19, n=4, Allo-S>2,500 pg mL^−1, retrospective",247%
same,"Seizure frequency at 6 months compared to baseline, biomarker-positive group","PCDH19, p=0.02, Wilcoxon",significantly improved
same,"Seizure frequency at 6 months compared to baseline, biomarker-negative (high Allo-S) group","PCDH19, p=0.25, Wilcoxon",did not improve
same,"28-day seizure frequency, sum of individual seizures and clusters, post-baseline 26-week open-label period, Mean (SD)","PCDH19 N=11, MITT",19.85
same,"28-day seizure frequency, sum of individual seizures and clusters, post-baseline 26-week open-label period, Median","PCDH19 N=11, MITT",5.42
same,"28-day seizure frequency, sum of individual seizures and clusters, post-baseline through Month 3 (Day 91), Mean (SD)","PCDH19 N=11, MITT",19.82
same,"28-day seizure frequency, sum of individual seizures and clusters, post-baseline through Month 3 (Day 91), Median","PCDH19 N=11, MITT",7.78
same,"Percent change from baseline (at Day 91), 28-day seizure frequency, sum of individual seizures and clusters, Mean (SD)","PCDH19 N=11, MITT",52.83%
same,"Percent change from baseline (at Day 91), 28-day seizure frequency, sum of individual seizures and clusters, Median","PCDH19 N=11, MITT",25.98% and −25.98%
same,"Percent change from baseline (at Week 26), 28-day seizure frequency, sum of individual seizures and clusters, Mean (SD)","PCDH19 N=11, MITT",46.36%
same,"Percent change from baseline (at Week 26), 28-day seizure frequency, sum of individual seizures and clusters, Median","PCDH19 N=11, MITT",24.59% and −24.59%
same,"% change seizure rate-12 month, Mean","PCDH19 cohort, N=7",51.34%
same,"% change seizure rate-12 month, Median","PCDH19 cohort, N=7",−8.57%
same,"Post-baseline 28-day seizure rate-12 month, Mean","PCDH19 cohort, N=7",24.25
same,"Post-baseline 28-day seizure rate-12 month, Median","PCDH19 cohort, N=7",19.44
same,"% change seizure rate-3 month, Mean","PCDH19 cohort, N=11",105.59%
same,"% change seizure rate-3 month, Median","PCDH19 cohort, N=11",−7.37%
same,"% change seizure rate-6 month, Mean","PCDH19 cohort, N=11",103.72%
same,"% change seizure rate-6 month, Median","PCDH19 cohort, N=11",−25.68%
same,"Post-baseline 28-day seizure rate-3-month, Mean","PCDH19 cohort, N=11",84.51
same,"Post-baseline 28-day seizure rate-3-month, Median","PCDH19 cohort, N=11",15.81
same,"Post-baseline 28-day seizure rate-6 month, Mean","PCDH19 cohort, N=11",84.41
same,"Post-baseline 28-day seizure rate-6 month, Median","PCDH19 cohort, N=11",15.81
same,Mean percent change in 28-day total seizure frequency from baseline to Week 26,"PCDH19 cohort, PP Population",60.99%
same,Median percent change in 28-day total seizure frequency from baseline to Week 26,"PCDH19 cohort, PP Population",22.11%
same,Clinical global impression of improvement: much improved,"PCDH19 cohort, end of Week 26",2 subjects
same,Clinical global impression of improvement: very much improved,"PCDH19 cohort, end of Week 26",2 subjects
same,"28-day individual seizure frequency, post-baseline 26-Week open-label period, Mean (SD)","PCDH19 n=11, MITT",7.28
same,"28-day individual seizure frequency, post-baseline 26-Week open-label period, Median","PCDH19 n=11, MITT",2.26
same,"28-day individual seizure frequency, post-baseline through Month 3 (Day 91), Mean (SD)","PCDH19 n=11, MITT",7.29
same,"28-day individual seizure frequency, post-baseline through Month 3 (Day 91), Median","PCDH19 n=11, MITT",2.49
same,"Percent change from baseline (at Day 91), 28-day individual seizure frequency, Mean (SD)","PCDH19 n=11, MITT",−16.92%
same,"Percent change from baseline (at Day 91), 28-day individual seizure frequency, Median","PCDH19 n=11, MITT",−38.48%
same,"Percent change from baseline (at Week 26), 28-day individual seizure frequency, Mean (SD)","PCDH19 n=11, MITT",−23.95%
same,"Percent change from baseline (at Week 26), 28-day individual seizure frequency, Median","PCDH19 n=11, MITT",−34.48%
same,Median percent reduction in seizures,children with PCDH19 disorder,34%
same,28-day seizure free days % change at 3 months,[1],8% and 18% (2×) and 49% and −7% and −19% and −89% and 23% and 39% and 880% and 4%
same,28-day seizure free days % change at 6 months,[1],7% and 27% and 14% and 32% and −3% and 890% and 5%
same,28-day seizure rate % change at 3 months,[1],−33.29% and 31.36% and −7.37% and −4.38% and 106.67% and 353.25% and 1020.50% and −100.00% and −78.83% and −74.17% and −52.30%
same,28-day seizure rate % change at 6 months,[1],−33.22% and −25.68% and −5.26% and −2.56% and 140.00% and early term (2×) and rash and sz returned and −73.47% and −53.85%
same,Patients achieving greater than 50% seizure reduction that persisted for greater than 6 months,[2],4 patients
same,Patients with some degree of seizure reduction,[2],9 of 11

# — US20250082651A1, “GANAXOLONE FOR USE IN TREATING GENETIC EPILEPTIC DISORDERS” (Marinus Pharmaceuticals, Inc., priority 2017, published 2025)
